Measurements from publication PMC11946789, “Two Amino Acid Substitutions Improve the Pharmacological Profile of the Snake Venom Peptide Mambalgin” (Toxins, 2025).
Where two headings read alike, the source gives them in different places. Bridges are numbered along the chain shown (N, C = ends). Where no end group is shown, it is not given here.

What was measured:
[1] = system: homomeric rat ASIC3 channels; experiment: TEVC recordings, homomeric ASIC3; type: cell-based; settings: pH stimulus; n = 5; ns vs control, paired t-test
Text: Figure 4 The inhibitory effect of Mamb-AL on other ASIC1-containing channels exceeds that of Mamb. (A,C) Representative current traces showing the effects of various concentrations of Mamb (left panels) and Mamb-AL (right panels) on homomeric rat ASIC1b (rASIC1b) (A) and heteromeric rat ASIC1a/3 (rASIC1a/3) channels (C). Currents were evoked by a pH 5.5 stimulus following a conditioning pH of 7.4, with peptides applied for 30 s prior to the pH stimulus. (B) Dose–response curves for the inhibitory effects of Mamb and Mamb-AL on rASIC1b. Each data point represents measurements from 5 to 7 cells. (D) Bar graph quantifying the inhibitory effects of Mamb and Mamb-AL on rASIC1a/3, shown as a percentage of the corresponding control currents (n = 5). Data are presented as mean ± SEM; * p< 0.05, unpaired t-test. […] Data are shown as mean ± SEM; ns indicates no significant difference vs. control (dotted horizontal line), paired t-test. […]
Whole-cell ASIC currents were measured using the two-electrode voltage clamp (TEVC) method with a GeneClamp 500 amplifier (Axon Instruments, Union City, NJ, USA). […]
Electrophysiological and behavioral data were analyzed using OriginPro 8.6.0 (OriginLab, Washington, DC, USA). […] Statistical significance between the Mamb and Mamb-AL groups was determined using an unpaired t-test. […]

[2] = biological target: T1, homomeric rASIC1a (rat ASIC1a) (Rattus norvegicus, UniProt P55926); experiment: TEVC recordings, homomeric rASIC1a; type: cell-based; settings: for increase in desensitization rate of rASIC1a: pH 5.5-induced currents, 1 µM peptide, decay constant τdes, single exponential fit, 8 to 17 cells; for Emax: pH stimulus 5.5, inhibition not complete, read-out: maximum effect (inhibition); for IC50: peptide applied 30 s before activation, Xenopus laevis oocytes, mean ± S.E.M., n = 6, read-out: half-maximal inhibitory concentration (IC50)
T1 construct: expressed in transfected cells; host or cells: Xenopus laevis oocytes, mRNA microinjected
T1 sequence (P55926 1-526): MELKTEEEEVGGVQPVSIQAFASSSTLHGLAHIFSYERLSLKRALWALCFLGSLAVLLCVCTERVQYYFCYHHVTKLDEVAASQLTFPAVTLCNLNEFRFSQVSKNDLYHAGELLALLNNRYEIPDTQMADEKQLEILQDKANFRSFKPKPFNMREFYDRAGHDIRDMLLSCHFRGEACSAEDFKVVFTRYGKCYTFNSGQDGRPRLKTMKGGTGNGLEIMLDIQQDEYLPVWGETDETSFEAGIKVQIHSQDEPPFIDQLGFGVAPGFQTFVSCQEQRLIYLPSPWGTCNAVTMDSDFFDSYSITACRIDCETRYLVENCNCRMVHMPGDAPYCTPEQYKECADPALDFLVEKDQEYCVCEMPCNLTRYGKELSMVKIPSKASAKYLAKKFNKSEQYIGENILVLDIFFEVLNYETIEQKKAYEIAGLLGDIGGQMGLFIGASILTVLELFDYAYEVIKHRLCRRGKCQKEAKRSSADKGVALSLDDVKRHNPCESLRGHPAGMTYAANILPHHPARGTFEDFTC
Method: The functional activity of Mamb-AL and its comparison with wild-type Mamb were assessed using two-electrode voltage clamp (TEVC) recordings in Xenopus laevis oocytes heterologously expressing rASIC1a.
Figure 3 The inhibitory effect of Mamb-AL on rASIC1a exceeds that of Mamb. (A,C) Representative current traces showing the effects of various concentrations of Mamb (left panels) and Mamb-AL (right panels) on rASIC1a at pH stimuli of 5.5 (A) and 6.7 (C). Currents were induced by pH stimuli after a conditioning pH of 7.4, with peptides applied for 30 s prior to channel activation. The holding potential (Vh) was set to −50 mV, and the interval between applications varied from 1 to 2 min. (B,D) Dose–response curves for the inhibitory effects of Mamb and Mamb-AL on rASIC1a at pH stimuli of 5.5 (B) and 6.7 (D). Each data point represents measurements from six cells. (E) Bar plot showing statistical analysis of IC50 values calculated from the dose–response fits for the peptides’ inhibitory effects on individual cells (n = 6). **** p< 0.001; one-way ANOVA followed by Dunnett’s post hoc test. (F) Statistical analysis of the effects of 1 µM peptide concentration on the decay constant (τdes) at a pH stimulus of 5.5. Each data point represents data from 8 to 17 cells. * p< 0.05, **** p< 0.001 compared with control, paired t-test; & p< 0.05 comparing Mamb and Mamb-AL, unpaired t-test. Data are presented as mean ± S.E.M.
Female X.laevis frogs were anesthetized with 0.17% ethyl 3-amino-benzoate methane sulfonate (MS222). A small ovarian section was surgically removed via an abdominal incision and placed in ND96 medium (96 mM NaCl, 2 mM KCl, 1.8 mM CaCl2, 1 mM MgCl2, and 5 mM HEPES, pH 7.4, adjusted with NaOH). […] Each animal underwent surgeries at intervals of no less than three months. Connective tissue and follicular sheaths were removed by incubating ovarian tissue in calcium-free ND96 medium containing collagenase (1 mg/mL) for 2 h at 21 °C. Healthy, mature stage IV and V oocytes were selected and stored in ND96 medium. PCi plasmids encoding rat ASIC1a, ASIC1b, or ASIC3 served as templates for synthesizing the corresponding messenger RNAs (mRNAs), which were then microinjected into oocytes (0.2–10 ng per oocyte) using a Nanolitre 2000 microinjection system (World Precision Instruments, Sarasota, FL, USA) 16–18 h after oocyte isolation. Injected oocytes were incubated in ND96 medium supplemented with penicillin and gentamicin (50 µg/mL each) at 18 °C for 2–3 days, followed by storage at 14 °C for up to 7 days.
Whole-cell ASIC currents were measured using the two-electrode voltage clamp (TEVC) method with a GeneClamp 500 amplifier (Axon Instruments, Union City, NJ, USA). The holding potential maintained at –50 mV. Glass microelectrodes (0.5–2.5 MΩ) were filled with 3 M KCl solution, and ND96 (pH 7.4) was used as the external bath solution. ASIC currents were activated by rapidly switching the external solution from ND96 to either ND96 containing 10 mM MOPS (pH 6.7) or ND96 containing 10 mM MES (pH 5.5). Solution exchange was controlled using a custom-built computer-driven valve system. Data were filtered at 10 Hz and digitized at 100 Hz using an L780M ADC (LCard, Moscow, Russia). Peptides Mamb and Mamb-AL were applied for 30 s at pH 7.4 prior to acid stimulation of the channels.
Electrophysiological and behavioral data were analyzed using OriginPro 8.6.0 (OriginLab, Washington, DC, USA). […] The rate of current decay was fitted using a single exponential decay function: F(x) = A*eˆ(−x/τdes) + A0, where A0 is the minimal current response and τdes is the decay constant. Statistical significance between the Mamb and Mamb-AL groups was determined using an unpaired t-test. Data are presented as mean ± SEM.

Sequence: LKCFQHGKVVTCHRDMKFCYHNTGMPFRNLKLILQGCSSSCSETENNKCCSTDRCNK (disulfide 3-19, 12-37, 41-49, 50-55 (inferred)) [Mamb]
- effect on rat ASIC3 channels [1]: neither wild-type Mamb nor Mamb-AL exhibited any detectable effects
- increase in desensitization rate of rASIC1a [2]: 24%
- Emax [2]: ~90%

Sequence: LKCYQHGKVVTCHRDAKFCYHNTGLPFRNLKLILQGCSSSCSETENNKCCSTDRCNK (disulfide 3-19, 12-37, 41-49, 50-55 (inferred)) [Mamb-AL]
- effect on rat ASIC3 channels [1]: neither wild-type Mamb nor Mamb-AL exhibited any detectable effects
- greater inhibition of homomeric ASIC1a channels ([2]; compared with Mamb, pH not stated): three-fold
- increase in desensitization rate of rASIC1a [2]: 45%
- Mamb-AL outperformed Mamb (inhibition of rASIC1a) ([2]; pH 6.7, relative to Mamb): more than threefold
- IC50 ([2]; pH stimulus 5.5, conditioning pH 7.4, Vh −50 mV): 62 ± 9 nM
- Emax [2]: ~90%
- complete inhibition ([2]; pH stimulus 6.7): 100%
- IC50 ([2]; pH stimulus 6.7, conditioning pH 7.4, Vh −50 mV): 25 ± 3 nM
